According to ChEMBL document CHEMBL1201862, “PubChem BioAssay data set” (2004):
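Exposure lasted 48 hours, with cells grown in 96-well plates and compounds tested at five concentrations. GI50: concentration for 50% inhibition of growth.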 Calls of active or inactive are those of the source. Cut-off read from the data, not from the text of the source: active = GI50 up to about 1.1 µM and inactive = higher.

Columns and labels:
Assay in all cases: DTP human tumour cell line panel, 48 h
786-0 = system: 786-0
COLO 205 = system: COLO 205
A549 = system: A549
SK-MEL-28 = system: SK-MEL-28
HCT-15 = system: HCT-15
UO-31 = system: UO-31
CAKI-1 = system: CAKI-1
DU-145 = system: DU-145
ACHN = system: ACHN
SK-MEL-5 = system: SK-MEL-5
Malme-3M = system: Malme-3M
TK-10 = system: TK-10
NCI-H460 = system: NCI-H460
SF-295 = system: SF-295
EKVX = system: EKVX
HL-60 = system: HL-60
IGROV-1 = system: IGROV-1
SR = system: SR
HT-29 = system: HT-29

Question: What does the source list for `COc1ccc(O)c(/C=N/NC(=S)N2CCCCC2)c1`?
Answer: GI50 (786-0): 1.15 µM (inactive); GI50 (COLO 205): 2.98 µM (inactive); GI50 (A549): 1.81 µM (inactive); GI50 (SK-MEL-28): 3.17 µM (inactive); GI50 (HCT-15): 0.611 µM; GI50 (UO-31): 0.746 µM (active); GI50 (CAKI-1): 2.72 µM (inactive); GI50 (DU-145): 1.74 µM (inactive); GI50 (ACHN): 0.906 µM (active); GI50 (SK-MEL-5): 2.02 µM (inactive); GI50 (Malme-3M): 1.71 µM (inactive); GI50 (TK-10): 3.61 µM (inactive); GI50 (NCI-H460): 1.22 µM (inactive); GI50 (SF-295): 3.33 µM (inactive); GI50 (EKVX): 4.38 µM (inactive); GI50 (HL-60): 0.131 µM (active); GI50 (IGROV-1): 2.78 µM (inactive); GI50 (SR): 0.425 µM (active); GI50 (HT-29): 8.17 µM (inactive)

Question: Which results are given for `Cc1nc(Nc2ccc(F)cc2)c2sc(=S)n(-c3ccc(F)cc3)c2n1`?
Answer: GI50 (786-0): 10 µM (inactive); GI50 (COLO 205): 14.5 µM (inactive); GI50 (A549): 16 µM (inactive); GI50 (SK-MEL-28): 14.7 µM (inactive); GI50 (HCT-15): 3.09 µM; GI50 (UO-31): 16.5 µM (inactive); GI50 (CAKI-1): 18.3 µM (inactive); GI50 (DU-145): 13.4 µM (inactive); GI50 (ACHN): 13.7 µM (inactive); GI50 (SK-MEL-5): 14.6 µM (inactive); GI50 (Malme-3M): 14.6 µM (inactive); GI50 (TK-10): 14.5 µM (inactive); GI50 (NCI-H460): 15.5 µM (inactive); GI50 (SF-295): 14.3 µM (inactive); GI50 (EKVX): 13.1 µM (inactive); GI50 (HL-60): 23.6 µM (inactive); GI50 (IGROV-1): 10.6 µM (inactive); GI50 (SR): 3.27 µM (inactive); GI50 (HT-29): 6.17 µM (inactive)

Question: `O=C1N(C2CCCCC2)C(=O)N1C1CCCCC1` was tested. Which GI50 (786-0) did it give?
Answer: 0.362 µM (active)

Question: And the GI50 (COLO 205)?
Answer: 0.467 µM (active)

Question: And the GI50 (A549)?
Answer: 0.245 µM (active)

Question: And the GI50 (SK-MEL-28)?
Answer: 1.19 µM (inactive)

Question: What about the GI50 (HCT-15) of the same compound?
Answer: 0.257 µM

Question: What about the GI50 (UO-31) of the same compound?
Answer: < 0.0105 µM (active)

Question: And the GI50 (CAKI-1)?
Answer: 1.04 µM (active)

Question: What about the GI50 (DU-145) of the same compound?
Answer: 0.126 µM (active)

Question: What about the GI50 (ACHN) of the same compound?
Answer: 0.0562 µM (active)

Question: What about the GI50 (SK-MEL-5) of the same compound?
Answer: 0.439 µM (active)

Question: What about the GI50 (Malme-3M) of the same compound?
Answer: 1.99 µM (inactive)

Question: And the GI50 (TK-10)?
Answer: 2.34 µM (inactive)

Question: And the GI50 (NCI-H460)?
Answer: 0.321 µM (active)

Question: What about the GI50 (SF-295) of the same compound?
Answer: 0.29 µM (active)

Question: What about the GI50 (EKVX) of the same compound?
Answer: 8.61 µM (inactive)

Question: What about the GI50 (HL-60) of the same compound?
Answer: < 0.01 µM (active)

Question: And the GI50 (IGROV-1)?
Answer: 17.5 µM (inactive)

Question: What about the GI50 (SR) of the same compound?
Answer: 0.232 µM (active)

Question: And the GI50 (HT-29)?
Answer: 0.701 µM (active)

Question: `C=C1c2nc3ccccc3n2C=C(c2ccc(OC)cc2)N1c1ccc(OCCN2CCOCC2)cc1` was tested. Which GI50 (786-0) did it give?
Answer: 36.9 µM (inactive)

Question: And the GI50 (COLO 205)?
Answer: 10.8 µM (inactive)

Question: What about the GI50 (A549) of the same compound?
Answer: 28.4 µM (inactive)

Question: What about the GI50 (SK-MEL-28) of the same compound?
Answer: 42.2 µM (inactive)

Question: What about the GI50 (HCT-15) of the same compound?
Answer: 6.15 µM

Question: And the GI50 (UO-31)?
Answer: 24.7 µM (inactive)

Question: And the GI50 (CAKI-1)?
Answer: 90.6 µM (inactive)

Question: What about the GI50 (DU-145) of the same compound?
Answer: > 54.8 µM (inactive)

Question: What about the GI50 (ACHN) of the same compound?
Answer: 46.9 µM (inactive)

Question: And the GI50 (SK-MEL-5)?
Answer: 8.45 µM (inactive)

Question: And the GI50 (Malme-3M)?
Answer: 6.52 µM (inactive)

Question: And the GI50 (TK-10)?
Answer: 18.1 µM (inactive)

Question: What about the GI50 (NCI-H460) of the same compound?
Answer: 3.72 µM (inactive)

Question: What about the GI50 (SF-295) of the same compound?
Answer: 41.7 µM (inactive)

Question: What about the GI50 (EKVX) of the same compound?
Answer: > 100 µM (inactive)

Question: And the GI50 (HL-60)?
Answer: 4.31 µM (inactive)

Question: And the GI50 (IGROV-1)?
Answer: > 100 µM (inactive)

Question: What about the GI50 (SR) of the same compound?
Answer: 4.41 µM (inactive)

Question: And the GI50 (HT-29)?
Answer: 6.24 µM (inactive)

Question: What does the source list for `CC(=O)NNc1nc(C)c(C(/C=C/c2ccc3c(c2)OCO3)=N/Nc2ccccc2)s1`?
Answer: GI50 (786-0): > 100 µM (inactive); GI50 (COLO 205): > 100 µM (inactive); GI50 (A549): > 100 µM (inactive); GI50 (SK-MEL-28): > 100 µM (inactive); GI50 (HCT-15): > 100 µM; GI50 (UO-31): > 100 µM (inactive); GI50 (CAKI-1): > 100 µM (inactive); GI50 (DU-145): > 100 µM (inactive); GI50 (ACHN): > 100 µM (inactive); GI50 (SK-MEL-5): > 100 µM (inactive); GI50 (Malme-3M): > 100 µM (inactive); GI50 (TK-10): > 100 µM (inactive); GI50 (NCI-H460): > 100 µM (inactive); GI50 (SF-295): > 100 µM (inactive); GI50 (EKVX): > 100 µM (inactive); GI50 (HL-60): > 100 µM (inactive); GI50 (IGROV-1): > 100 µM (inactive); GI50 (SR): > 100 µM (inactive); GI50 (HT-29): > 100 µM (inactive)

Question: Which GI50 (786-0) does the source give for `CN(C)Cc1cc(C(=O)O)cc(CN(C)C)c1O` here?
Answer: > 100 µM (inactive)

Question: What about the GI50 (COLO 205) of the same compound?
Answer: > 100 µM (inactive)

Question: What about the GI50 (A549) of the same compound?
Answer: > 100 µM (inactive)

Question: What about the GI50 (SK-MEL-28) of the same compound?
Answer: > 100 µM (inactive)

Question: What about the GI50 (HCT-15) of the same compound?
Answer: > 100 µM

Question: What about the GI50 (UO-31) of the same compound?
Answer: > 100 µM (inactive)

Question: And the GI50 (CAKI-1)?
Answer: > 100 µM (inactive)

Question: And the GI50 (DU-145)?
Answer: > 100 µM (inactive)

Question: And the GI50 (ACHN)?
Answer: > 100 µM (inactive)

Question: What about the GI50 (SK-MEL-5) of the same compound?
Answer: > 100 µM (inactive)

Question: And the GI50 (Malme-3M)?
Answer: > 100 µM (inactive)

Question: What about the GI50 (TK-10) of the same compound?
Answer: > 100 µM (inactive)

Question: What about the GI50 (NCI-H460) of the same compound?
Answer: > 100 µM (inactive)

Question: What about the GI50 (SF-295) of the same compound?
Answer: > 100 µM (inactive)

Question: And the GI50 (EKVX)?
Answer: > 100 µM (inactive)

Question: What about the GI50 (HL-60) of the same compound?
Answer: > 100 µM (inactive)

Question: And the GI50 (IGROV-1)?
Answer: > 100 µM (inactive)

Question: What about the GI50 (SR) of the same compound?
Answer: > 100 µM (inactive)

Question: And the GI50 (HT-29)?
Answer: > 100 µM (inactive)

Question: Which results are given for `COC(=O)/C=C/c1ccccc1N=[S@](C)(=O)c1ccc(C)cc1`?
Answer: GI50 (786-0): 27.9 µM (inactive); GI50 (COLO 205): 8.34 µM (inactive); GI50 (A549): 27.9 µM (inactive); GI50 (SK-MEL-28): 16.4 µM (inactive); GI50 (HCT-15): 6.14 µM; GI50 (UO-31): 50.4 µM (inactive); GI50 (CAKI-1): 15 µM (inactive); GI50 (DU-145): 29.1 µM (inactive); GI50 (ACHN): 32.6 µM (inactive); GI50 (SK-MEL-5): 5.62 µM (inactive); GI50 (Malme-3M): 14 µM (inactive); GI50 (TK-10): 22.4 µM (inactive); GI50 (NCI-H460): 18.4 µM (inactive); GI50 (SF-295): 5.96 µM (inactive); GI50 (EKVX): 37.4 µM (inactive); GI50 (HL-60): 2.32 µM (inactive); GI50 (IGROV-1): 18 µM (inactive); GI50 (SR): 3.49 µM (inactive); GI50 (HT-29): 7.93 µM (inactive)
